Test results from patent US7320879B2, “Method of determining site-specificity and kit therefor” (Biacore AB, priority 2002, dated 2008).

Key:
[1] = tested on: protein kinase (C-terminal His-tag); test: SPR binding profiles of binders against captured protein kinase, single concentration; conditions: 10 μM ATP; FIG. 8
Source text: A BIACORE® S51 instrument (Biacore AB, Uppsala, Sweden) was used. This instrument has two Y-type flow cells which allow a dual flow of fluids over a sensor chip surface, so-called hydrodynamic addressing, as described in, for example, EP-B1-1021703 (the disclosure of which is incorporated by reference herein). The instrument uses three parallel detection spots on the sensor chip. As sensor chip was used Series S Sensor Chip CM5 (Biacore AB, Uppsala, Sweden) which has a gold-coated surface with a covalently linked carboxymethyl-modified dextran polymer hydrogel. The output from the instrument is a “sensorgram” which is a plot of detector response (measured in “resonance units”, RU) as a function of time. An increase of 1000 RU corresponds to an increase of mass on the sensor surface of approximately 1 ng/mm^2.
100 μg/ml of Penta-His™ antibody, BSA-free (Qiagen, Venlo, Netherlands) in 0.15 M NaCl was diluted to 30 μg/ml in 10 mM sodium acetate buffer pH 5.0 and immobilized on a Series S Sensor Chip CM5 by amine coupling according to the manufacturer's instructions. The contact time was 10 min, the flow rate was 10 μl/min, and 10 mM PBS was used as running buffer. A little less than 12000 RU of antibody were immobilized. […]

HSA [2] = target: T1, HSA (Homo sapiens, UniProt P02768); test: SPR (BIACORE S51) competition assay for HSA-binding site specificity, dissociation-phase response of mixtures; conditions: for effect of additional reference compounds on dissociation response of S1 on HSA: S1 constant 0.1 μM, reference 0-50 μM, d2 report point, FIG. 6
T1 construct: purchased Sigma A-4327

HSA [3] = target: T1, HSA; conditions: known site specificity of reference compounds (crystallography studies); cited from earlier work

T1 sequence (P02768 25-609): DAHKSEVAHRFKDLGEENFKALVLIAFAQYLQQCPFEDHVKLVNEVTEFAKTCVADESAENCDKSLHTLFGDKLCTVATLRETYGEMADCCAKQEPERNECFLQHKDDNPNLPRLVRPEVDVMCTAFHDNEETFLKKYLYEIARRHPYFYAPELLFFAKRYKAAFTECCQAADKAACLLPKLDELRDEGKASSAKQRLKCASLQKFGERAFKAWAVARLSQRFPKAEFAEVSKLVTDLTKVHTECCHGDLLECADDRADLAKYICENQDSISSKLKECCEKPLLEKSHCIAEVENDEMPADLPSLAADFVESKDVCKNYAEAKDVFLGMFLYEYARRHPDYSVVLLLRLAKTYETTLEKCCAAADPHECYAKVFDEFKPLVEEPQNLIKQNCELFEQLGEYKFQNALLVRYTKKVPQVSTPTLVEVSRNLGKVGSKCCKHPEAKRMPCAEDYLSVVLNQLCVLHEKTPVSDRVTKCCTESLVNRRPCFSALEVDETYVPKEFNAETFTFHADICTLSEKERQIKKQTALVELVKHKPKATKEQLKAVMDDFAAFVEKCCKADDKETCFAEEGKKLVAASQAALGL

SMILES	association/dissociation profile on the protein kinase [1]	effect of the reference compound on binding/dissociation phase of S1 on HSA (HSA [2])	known HSA-binding site (HSA [3])	effect of additional reference compounds on dissociation response of S1 on HSA (HSA [2])
Nc1ncnc2c1ncn2[C@@H]1O[C@H](COP(=O)(O)OP(=O)(O)OP(=O)(O)O)[C@@H](O)[C@H]1O [ATP, adenosine triphosphate]	very rapid binding and dissociation profile			
C[C@H]1O[C@@H](O[C@H]2[C@@H](O)C[C@H](O[C@H]3[C@@H](O)C[C@H](O[C@H]4CC[C@@]5(C)[C@H](CC[C@@H]6[C@@H]5CC[C@]5(C)[C@@H](C7=CC(=O)OC7)CC[C@]65O)C4)O[C@@H]3C)O[C@@H]2C)C[C@H](O)[C@@H]1O [digitoxin]		does not seem to affect the dissociation phase much		
O=C1NC(=O)C(c2ccccc2)(c2ccccc2)N1 [phenyloin]			site II	follow the behaviour of warfarin and naproxen respectively
COc1cc(NS(=O)(=O)c2ccc(N)cc2)nc(OC)n1 [sulfadimethoxine]			site I	deviates from the behaviour of warfarin
